The source of these data is patent US11366104B2, “Methods of identifying and monitoring mitochondrial dysfunction using monocyte screening” (Stealth BioTherapeutics Inc., priority 2014, dated 2022).

Data set [1] relates to Monocytes from Normal Dogs. Briefly: Oxygen consumption rate (XF analyzer) in isolated monocytes incubated with peptide, normal dogs. The format is cell-based, dog. The following applies: for MAXresp (maximal respiration) / Proton Leak / SRC (spare respiratory capacity): monocytes from normal dogs. On the procedure: (§1) Peripheral blood samples were obtained from 6 normal dogs and 6 dogs with coronary microembolizations-induced heart failure (LV ejection fraction ˜30%). Monocytes were isolated from the peripheral blood samples via sequential Ficoll and Percoll density gradients. Monocyte viability, assayed using Trypan blue exclusion, was ˜70%. An XFc/XF96 analyzer (Scahorsc Bioscience) was used to measure oxygen consumption rates (OCR) in monocytes in the presence and absence of 1 μM oligomycin, 0.5 μM FCCP, or 1 μM each rotenone and antimycin. Mitochondrial proton leak, maximal respiration (MAXresp) and spare respiratory capacity (SRC) were measured in the presence and absence of 0.1, 1.0 and 10 μM concentrations of D-Arg-2′6′Dmt-Lys-Phe-NH2. Results were expressed in pmols OCR/min/μg protein.

The test system of data set [2] is Monocytes from Heart Failure Dogs. Briefly: Oxygen consumption rate (XF analyzer) in isolated monocytes incubated with peptide, heart failure dogs. The format is cell-based, dog. The following applies: for MAXresp (maximal respiration) / Proton Leak / SRC (spare respiratory capacity): monocytes from heart failure dogs. The method, then: as §1
Data set [3] relates to several mammalian cell types. The following applies: energy-independent manner; Zhao et al., J. Pharmacol Exp Ther., 304:425-432, 2003; cited from earlier work.
[4] abbreviates: heart failure dogs, 0.1, 1.0 and 10 μM.

In the case of D-Arg-2′6′Dmt-Lys-Phe-NH2, the “MAXresp (maximal respiration)” value in data set [1] (peptide concentration 0.1 μM) amounted to 11.1 pmols OCR/min/μg protein; in data set [1] (peptide concentration 1.0 μM), 12.1 pmols OCR/min/μg protein; in data set [1] (peptide concentration 10 μM), 12.1 pmols OCR/min/μg protein; in data set [2] (peptide concentration 0.1 μM), 6.3 pmols OCR/min/μg protein; in data set [2] (peptide concentration 1.0 μM), 8.3 pmols OCR/min/μg protein; in data set [2] (peptide concentration 10 μM) it was 9.4 pmols OCR/min/μg protein. Also, the “Proton Leak” value is on record as 0.54 pmols OCR/min/μg protein in data set [1] (peptide concentration 0.1 μM); 0.47 pmols OCR/min/μg protein in data set [1] (peptide concentration 1.0 μM); 0.48 pmols OCR/min/μg protein in data set [1] (peptide concentration 10 μM); 1.55 pmols OCR/min/μg protein in data set [2] (peptide concentration 0.1 μM); 0.94 pmols OCR/min/μg protein in data set [2] (peptide concentration 1.0 μM); 0.77 pmols OCR/min/μg protein in data set [2] (peptide concentration 10 μM). For the same substance, the “SRC (spare respiratory capacity)” value in data set [1] (peptide concentration 0.1 μM) came out at 6.35 pmols OCR/min/μg protein; in data set [1] (peptide concentration 1.0 μM), 7.04 pmols OCR/min/μg protein; in data set [1] (peptide concentration 10 μM) it was 7.04 pmols OCR/min/μg protein; in data set [2] (peptide concentration 0.1 μM), 1.95 pmols OCR/min/μg protein; in data set [2] (peptide concentration 1.0 μM), 3.64 pmols OCR/min/μg protein; in data set [2] (peptide concentration 10 μM) it was 4.51 pmols OCR/min/μg protein. The “effect on measures of monocyte mitochondrial function” value in data set [1] (normal dogs, incubation with 0.1, 1.0 and 10 μM) was “no effect”. In addition, in data set [2] (setting [4]), the “change in MAXresp with concentration” value is given as “dose-dependent increase”. In data set [2] (setting [4]), the “change in SRC with concentration” value is “dose-dependent increase”. Besides, in data set [2] (setting [4]), the “change in proton leak with concentration” value is on record as “dose-dependent decrease”. For the same substance, the monocyte mitochondrial function entry in data set [2] (heart failure dogs, after treatment with 0.1, 1.0 and 10 μM) was “nearly normalized/restored”.

Turning to 2′,6′-Dmt-D-Arg-Phe-Lys-NH2, the “penetration of the plasma membrane” value in data set [3] is reported as “readily penetrates the plasma membrane”.
